# Experimental data reported in US11672834B2, “Probiotic and prebiotic compositions, and methods of use thereof for modulation of the microbiome” (Evelo Biosciences, Inc., priority 2014, dated 2023).
# Tests used:
# tumors = details: oral administration; cited from earlier work
# [1] = tested on: Blautia; Lactobacillus johnsonii; experiment: Sugar fermentation by Blautia versus Lactobacillus johnsonii (pH and optical density, media lacking glucose); format: cell-based
# [2] = tested on: Tregs in the large intestine; details: mouse, in vivo; cited from earlier work
# C57Bl/6 female mice = details: mouse, in vivo
# Excerpt: The trillions of organisms forming the microbiome function as an organ system interconnected throughout the body. The possibility that modification of the microbiome in a given physical location may influence the microbiome at other sites in the body (distal augmentation) was investigated. Seven week old C57Bl/6 female mice were acclimatized for 7 days prior to the start of the study by daily handling and shuffling between cages. All mice were housed at three mice per cage in individually vented cages (Thoren, Hazleton, Pa.). At day 0, baseline fresh fecal pellets, and vaginal lavages with 100 μL of sterile double-distilled water were collected and immediately frozen at −80° C. for microbiome analysis. […] Water alone is not expected to influence the microbiome and acted as a negative control. […] The impact of oral vancomycin is therefore expected to be limited to the gastrointestinal tract such that microbiome changes elsewhere in the body (e.g. vagina) would be attributable to distal augmentation. At day 6, fresh fecal pellets and vaginal lavages with 100 μL of sterile double-distilled water were collected and immediately stored at −80° C. for microbiome analysis.
# Isolation and sequencing of microbial DNA from the stool and vaginal samples was performed by DNA Genotek (Ottawa, ON, Canada). The V3-V4 region of the 16S ribosomal subunit was amplified with custom PCR primers and sequenced on an Illumina MiSeq to a minimum acceptable read depth of 25,000 sequences per sample. […] These OTU's were then assigned a curated taxonomic label based on the seven level SILVA taxonomy.
# [3] = tested on: healthy, adult volunteers; experiment: Normal human volunteer study of D-xylose: immunology (CRP, cytokines, T-cell markers) and gut microbiome; format: in vivo; details: for effect on gut microbiome (alpha diversity, community composition): stool 16S, normal individuals
# Excerpt: Blood was collected at pre-specified pre- and post-ingestion time points to evaluate C-reactive protein (CRP), serum cytokines (tumor necrosis factor alpha [TNF-α], interleukin [IL]-2, IL-6, interferon gamma [IFN-γ], and IL-10), and T-cell markers CD3, CD4, CD8, CD25, and FOXP3. Plasma was also stored and may be tested for biomarkers and/or metabolic markers for up to 7 years.
# A total of 7 stool samples were expected to be collected for each subject. Evaluation of changes in the gut microbiome were evaluated in stool samples through taxonomic classification, relative and statistical differential abundance analyses by cohort and time point, an alpha diversity analysis calculated using the Shannon diversity index by cohort and time point, a beta diversity analysis using Bray-Curtis dissimilarity and Unifrac distance by subject and time point, and a principal coordinates analysis using the beta diversity data.
# Summary statistics (n, mean, standard deviation, median, minimum, and maximum) were presented for serum concentrations of CRP, flow cytometry T-cell markers (CD3, CD4, CD8, CD25, and FOXP3), and cytokines (TNF-α, IL-2, IL-6, IFN-γ, and IL-10) as per their nominal time points.
# A total of 344 stool samples were collected in OMNIgene•GUT collection kits and shipped to the GenoFIND laboratory for DNA extraction and V3-V4 16S amplicon sequencing. […] Numerous taxa were identified as differentially abundant, but this finding may be attributable to the relatively small sample sizes of each cohort. […] The impact of xylose on the microbiome under disease conditions remains to be determined.
# mice with GVHD = details: mouse, in vivo
# serum endotoxin = tested on: serum endotoxin
# Excerpt: FIG. 1 is a graph depicting serum endotoxin levels (EU/ml) over time following treatment with xylose.
# [4] = tested on: anaerobic commensal bacteria; experiment: Carbon source utilization by commensal bacteria (Biolog PM01/PM02A plates, OD 750 nm); format: cell-based
# [5] = tested on: healthy, adult volunteers; details: human, in vivo, 28 days
# Procedure: D-xylose is a carbon source generally preferred by anaerobic bacteria. […] A parallel, double-blind, 5 cohort escalation food safety study was conducted to examine D-xylose in normal human volunteers. The study was a double-blind, single-center, parallel group study designed to evaluate the tolerability and potential microbiome changes induced by ingestion of D-xylose at 5 different amounts in healthy, adult volunteers enrolled at 1 study center in the United States (US).
# Subjects were screened for eligibility within 21 days prior to the first planned ingestion of study sweetener on Day 1 (Baseline). […]
# Subjects returned to the study center weekly on Days 8, 15, 22, and 28 for ingestion, tolerability, and compliance evaluations. Safety was evaluated on a continual basis through adverse events (AE) monitoring, clinical laboratory measurements, vital sign monitoring, physical examinations, electrocardiograms (ECGs), telephone follow-up, and electronic subject ingestion diaries. Stool was collected pre-ingestion and at pre-specified time points, and post-ingestion samples were evaluated for changes in the gut microbiome compared with Baseline for all subjects. […]
# Safety was evaluated on a continual basis through AE monitoring, clinical laboratory measurements, vital sign monitoring, physical examinations, ECGs, telephone follow-up, and electronic subject ingestion diaries. […]
# [6] = Normal human volunteer study of D-xylose: pharmacokinetics (serum and urine D-xylose); format: in vivo; details: Day 15; 15 mg TID cohort; variability high
# Procedure: Blood and urine were collected at pre-specified pre- and post-ingestion time points to measure D-xylose levels and to characterize the systemic absorption profiles of D-xylose. Serum D-xylose concentrations were summarized by cohort using nominal sample times according to actual amount received using summary statistics (n, coefficient of variation [CV], mean, standard deviation [SD], median, minimum, and maximum). Evidence for the occurrence of steady-state was assessed graphically by comparing the time course of either trough or 2-hour post-ingestion serum concentrations of D-xylose as different levels of D-xylose. Accumulation was assessed by comparing the 2-hour post-first-ingestion serum levels with those observed at Week 2 (Day 15) and Week 4 (Day 28). […] Urine PK parameters for D-xylose levels included Ae(0-t) (cumulative amount of sweetener recovered in urine) and percent sweetener amount excreted over a 5-hour period.
compound,measurement,setting,value
Bifidobacterium,responsiveness to checkpoint inhibitor therapy in cancer,tumors,increases the responsiveness to checkpoint inhibitor therapy in cancer
C[C@H](O)[C@H](O)[C@@H](O)[C@@H](O)C=O [rhamnose],substrate fermentable by Blautia but not lactobacillus,[1],specifically augments Blautia but not lactobacillus
CCC(=O)O [propionate],numbers of Tregs in the large intestine,[2],restored normal numbers of Tregs in the large intestine
"CN[C@H](CC(C)C)C(=O)N[C@H]1C(=O)N[C@@H](CC(N)=O)C(=O)N[C@H]2C(=O)N[C@H]3C(=O)N[C@H](C(=O)N[C@H](C(=O)O)c4cc(O)cc(O)c4-c4cc3ccc4O)[C@H](O)c3ccc(c(Cl)c3)Oc3cc2cc(c3O[C@@H]2O[C@H](CO)[C@@H](O)[C@H](O)[C@H]2O[C@H]2C[C@](C)(N)[C@H](O)[C@H](C)O2)Oc2ccc(cc2Cl)[C@H]1O [Vancomycin, vancomycin]","impact on the microbiome of the gut (fecal samples, PCA at family level)",C57Bl/6 female mice,strong impact on the microbiome of the gut
same,median abundance of bacterial species detected in vaginal samples at day 6 that were not present at day 0,C57Bl/6 female mice,approximately 0.00002%
same,day 0 to day 6 pattern in vaginal samples (PCA),C57Bl/6 female mice; po,overall difference between the PBS and oral vancomycin groups
O=C[C@H](O)[C@@H](O)[C@H](O)CO [xylose],"effect on gut microbiome (alpha diversity, community composition)",[3],exerts subtle changes in the gut microbiome
same,Blautia in the intestinal flora,mice with GVHD,expansion of Blautia in the intestinal flora
same,survival of mice with GVHD,mice with GVHD,improved survival of mice with GVHD
same,basal levels of serum endotoxin,"serum endotoxin; mouse, in vivo",reduces basal levels of serum endotoxin
same,effect on the endotoxin increase caused by cipro,"serum endotoxin; mouse, in vivo",counteracts the endotoxin increase
same,effect on the endotoxin increase caused by enro,"serum endotoxin; mouse, in vivo",not
same,substrate fermentable by Blautia but not lactobacillus,[1],specifically augments Blautia but not lactobacillus
Bacteroides,responsiveness to checkpoint inhibitor therapy in cancer,tumors,increases the responsiveness to checkpoint inhibitor therapy in cancer
CC(=O)O [acetate],numbers of Tregs in the large intestine,[2],restored normal numbers of Tregs in the large intestine
O=C[C@H](O)[C@@H](O)[C@H](O)CO [D-xylose],use as carbon source by bacterial strains,[4],used as a carbon source by several bacterial strains
same,serum interferon gamma over time,[3]; 2 g and 15 g D-xylose cohorts,trend for reduced levels of serum interferon gamma over time
same,total T-cells or T-cell subsets over time,[3]; any D-xylose ingestion amount,No consistent or clinically meaningful changes over time
same,"effect on gut microbiome (alpha diversity, community composition)",[3],no apparent significant impact on the intra-sample alpha diversity
same,subjects with at least 1 AE considered related to study sweetener,[5],25.0%
same,accumulation ratio,[6],approximately 1.9 fold
"CCN1CCN(c2cc3c(cc2F)c(=O)c(C(=O)O)cn3C2CC2)CC1 [enrofloxacin, reference compound]","serum endotoxin levels after antibiotic treatment, recovery","serum endotoxin; mice, by day 14",return to baseline
same,serum endotoxin levels after antibiotic treatment,"serum endotoxin; mice, measured 2 days after a 5 day course, at day 0",leads to an increase in serum endotoxin levels
